Literature values as cited in patent US20080145318A1, “ATOMOXETINE FORMULATIONS AND ASSOCIATED METHODS” (priority 2006, published 2008).

Assays:
other receptor systems = conditions: in words
[1] = molecular target: norepinephrine reuptake transporter (Homo sapiens, UniProt P23975); conditions: relative to atomoxetine, in words
serotonin reuptake = serotonin reuptake (Homo sapiens, UniProt P31645); conditions: in words
Sequence of serotonin reuptake (P31645 whole entry): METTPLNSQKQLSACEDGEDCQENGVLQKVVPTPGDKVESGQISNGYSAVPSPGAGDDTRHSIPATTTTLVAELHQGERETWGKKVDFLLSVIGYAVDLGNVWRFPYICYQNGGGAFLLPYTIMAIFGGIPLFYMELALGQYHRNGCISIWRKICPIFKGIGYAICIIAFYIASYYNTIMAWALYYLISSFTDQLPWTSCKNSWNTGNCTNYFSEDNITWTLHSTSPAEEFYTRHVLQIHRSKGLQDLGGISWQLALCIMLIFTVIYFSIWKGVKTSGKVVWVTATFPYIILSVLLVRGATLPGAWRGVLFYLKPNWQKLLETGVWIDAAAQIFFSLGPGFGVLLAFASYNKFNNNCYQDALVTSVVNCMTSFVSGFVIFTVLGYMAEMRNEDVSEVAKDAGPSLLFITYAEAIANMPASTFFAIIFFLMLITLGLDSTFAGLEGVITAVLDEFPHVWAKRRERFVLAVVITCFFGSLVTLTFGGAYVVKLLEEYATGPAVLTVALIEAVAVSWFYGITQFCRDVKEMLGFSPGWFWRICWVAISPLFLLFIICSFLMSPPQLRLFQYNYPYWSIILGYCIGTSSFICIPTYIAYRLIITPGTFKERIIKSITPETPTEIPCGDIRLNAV

Sequence of norepinephrine reuptake transporter (P23975 whole entry): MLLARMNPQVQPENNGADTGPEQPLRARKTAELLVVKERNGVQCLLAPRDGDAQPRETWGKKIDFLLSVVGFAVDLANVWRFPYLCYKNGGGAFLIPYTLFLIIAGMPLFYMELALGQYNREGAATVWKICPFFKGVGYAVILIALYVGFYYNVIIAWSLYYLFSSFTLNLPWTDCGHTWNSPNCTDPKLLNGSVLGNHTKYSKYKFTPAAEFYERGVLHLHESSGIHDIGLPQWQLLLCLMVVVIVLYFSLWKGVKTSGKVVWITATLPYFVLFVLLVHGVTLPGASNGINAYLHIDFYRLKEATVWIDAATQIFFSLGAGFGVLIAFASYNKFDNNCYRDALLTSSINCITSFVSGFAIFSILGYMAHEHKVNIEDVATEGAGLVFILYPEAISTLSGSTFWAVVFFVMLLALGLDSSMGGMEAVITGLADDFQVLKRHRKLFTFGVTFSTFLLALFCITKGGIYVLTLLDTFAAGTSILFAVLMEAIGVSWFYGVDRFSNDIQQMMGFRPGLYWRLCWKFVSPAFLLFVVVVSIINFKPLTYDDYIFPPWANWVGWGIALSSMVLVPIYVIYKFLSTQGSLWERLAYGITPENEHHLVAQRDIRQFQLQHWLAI

Structure (SMILES)	plasma half-life (individuals having normal activity in the CYP2D6 pathway)	half-life (individuals having reduced activity in the CYP2D6 pathway (poor metabolizers))	affinity to other receptor systems (other receptor systems)	inhibitory activity to the norepinephrine reuptake transporter compared to atomoxetine [1]	serotonin reuptake inhibitor activity (serotonin reuptake)
CNCCC(Oc1ccccc1C)c1ccccc1 (single isomer, unassigned; (-)) [atomoxetine, (−)-N-methyl-3-phenyl-3-(o-tolyloxy)-propylamine]	about 5 hours	about 24 hours	–	–	–
Cc1cc(O)ccc1OC(CCN)c1ccccc1 (centres unmarked) [4H-NDA, N-desmethyl-4-hydroxyatomoxetine]	–	–	little affinity	less active	–
CNCCC(Oc1ccc(O)cc1C)c1ccccc1 (centres unmarked) [4HA, 4-hydroxyatomoxetine]	–	–	little affinity	–	pharmacologically active
Cc1ccccc1OC(CCN)c1ccccc1 (centres unmarked) [NDA, N-desmethylatomoxetine]	–	–	little affinity	less active	–
